Data: US20090274626A1, “TARGETING TNF-alpha CONVERTING ENZYME(TACE)- DEPENDENT GROWTH FACTOR SHEDDING IN CANCER THERAPY” (The Regents of the University of California, priority 2005, published 2009)
“Also recorded” adds a separate entry of the source.

Legend:
MDA-MB-468 = assay: ELISA of TGFα shedding from MDA-MB-468 cells; type: cell-based, human; settings: MDA-MB-468, 20 μM TAPI-2, 90 minutes
Protocol: (§1) FIG. 8. Suppression of growth factor shedding by TAPI-2 in a panel of breast cancer cell lines. A: Three AREG-expressing breast cancer cell lines were identified. Equal number of cells were treated with 20 μM TAPI-2 or vehicle for 90 minutes and AREG shedding was quantified by ELISA. B: Two breast cancer cell lines expressing TGFα were identified and treated as described in (A). TAPI-2 suppresses TGFα shedding.
(§2) ELISA. Equal numbers of cells were washed three times and allowed to condition medium for 90 minutes. The amount of AREG and TGFα accumulating in the medium was determined by using specific ELISA assays (R & D Systems, Minneapolis, Minn.) according to the manufacturer's instructions.

T4-2 cells [1] = assay: Cytotoxicity of TAPI-2 at the concentration used; type: cell-based, human; settings: data not shown
T4-2 cells [2] = assay: ELISA of EGFR ligands in conditioned medium of T4-2 3D lrECM cultures; type: cell-based, human; settings: TAPI-2 treatment as printed in legend
Protocol: (§3) Silencer™ siRNAs against TACE (Ambion, Austin, Tex.) were also transfected in according to the Reverse Transfection protocol of Invitrogen. siRNAs against the following TACE sense strand sequences were transfected either individually (100 nM) or as a pool (33.3 nM each): […]tt (SEQ ID NO: 2), GCAGCAt[…]tt (SEQ ID NO:3) and […]tt (SEQ ID NO: 4). For 3D culture assays, T4-2 cells were trypsinized post-transfection and plated as single cells in Matrigel. Knockdown was assessed by western blot from a parallel transfection 48 hrs post-transfection. Random siRNA sequence was used as a negative control.
as §2

[3] = test system: T4-2 cells expressing TGFαΔTM; assay: 3D culture of T4-2 cells expressing soluble TGFα (TGFαΔTM): colony size and morphology; type: cell-based, human; settings: T4-2 cells producing soluble TGFα
Protocol: (§4) For 3D lrECM culture, T4-2 cells were seeded at 21000 cells per cm^2 on top of Matrigel, overlaid with H14 medium containing 5% Matrigel (BD Biosciences, San Jose, Calif.), and treated with 80 nM AG1478, 20 μM TAPI-2 or the relevant vehicle controls.
(§5) Amphotropic retroviruses were generated by transfection (Lipofectamine; Invitrogen, Carlsbad, Calif.) of the Phoenix packaging cell line (a gift of Dr. Gary Nolan, Stanford) with pBM-IRES-Puro or derivatives containing the AREG or TGFα open reading frames. Two million phoenix cells per 6 cm dish were plated the day prior to transfection and transfected with 2 μg of the appropriate retroviral construct. Retrovirus-containing culture medium was harvested after 48 hrs, supplemented with polybrene to 5 μg/ml and added to HMT3522 cells at 30-50% confluence. Pools of stable infectants were selected in 1 μg/ml puromycin.
(§6) Cloning of pro-AREG and pro-TGFα. The open reading frames of these genes were amplified by PCR from T4-2 cDNA. […]
(§7) Quantitation of colony size in the 3D lrECM culture was performed by image analysis. […] The high resolution digital images were then analyzed using NIH Image analysis software and the cross-sectional area of each colony was determined for many colonies. This process was hand-curated to ensure that aggregates of colonies were not measured as a single colony.

T4-2 cells [4] = assay: ELISA of AREG and TGFα shed into conditioned medium of T4-2 cells; type: cell-based, human; settings: TAPI-2-treated T4-2 cells
Protocol: as §3, §2

HCC1500 = assay: ELISA of AREG and TGFα shedding from HCC1500 cells; type: cell-based, human; settings: HCC1500, 20 μM TAPI-2, 90 minutes
Protocol: as §1, §2

MCF-7 = assay: ELISA of AREG shedding from MCF-7 cells; type: cell-based, human; settings: MCF-7, 20 μM TAPI-2, 90 minutes
Protocol: as §1, §2

S1 cells = assay: Acinar morphogenesis of S1 cells in the presence of soluble EGF; type: cell-based, human; settings: data not shown
Protocol: Cell culture All reagents were purchased from SIGMA (St. Louis, Mo.) except where otherwise noted. HMT3522 cells were cultivated on 2D and 3D substrata in H14 medium, a 50:50 mix of DMEM/F12 (UCSF Cell culture Facility, San Francisco, Calif.) supplemented with 5 μg/ml prolactin, 250 ng/ml insulin, 1.4×10^−6 M hydrocortisone, 10^−10 M β-estradiol, 2.6 ng/ml sodium selenite and 10 μg/ml transferrin. S1 cells were additionally supplemented with 10 ng/ml EGF. In various experiments, cells were supplemented with AREG, TACE, TGFα. In all cases, AREG and TGFα were used at the same molar concentration as EGF ([…]).

[5] = test system: signaling kinases downstream of the EGFR; assay: Western blot of basal activity of signaling kinases downstream of the EGFR in T4-2 cells; type: cell-based, human; settings: addition of TAPI-2
Protocol: Western blotting. Cells were lysed in 50 mM Tris.HCl pH 7.5, 150 mM NaCl, 0.5% NP40 supplemented with protease and phosphatase inhibitors (Calbiochem, San Diego, Calif.) and clarified by centrifugation. 50 μg of each sample was fractionated by SDS-PAGE, transferred to nitrocellulose membranes and probed with antibodies against the following proteins: phospho-MAPK, Total MAPK, phospho-p70S6-Kinase, (Cell Signaling Technology, MA). E-cadherin (BD Biosciences, CA) was used as a loading control. Blots were developed using Supersignal West Femto (Pierce, Rockland, Ill.). Images were captured using a Fluor Chem 8900 imager (Alpha Innotech, San Leandro, Calif.).

T4-2 cells [6] = assay: Relative proliferation of T4-2 cells with AG 1478 with or without TAPI-2 (sensitization, FIG. 5); type: cell-based, human; settings: 10 μM TAPI-2; shift of AG 1478 proliferation curve
Protocol: FIG. 5. […] T4-2 cells were allowed to adhere to 48 well plates. Drugs were added at the indicated concentrations. Conditions were analyzed in triplicate. For comparison, all data were normalized to the 100%.
(FIG. 5) In this experiment, T4-2 cells were allowed to adhere to 48 well plates. Drugs, AG 1478 and TAPI-2, were added at various concentrations of 0.001 μM, 0.01 μM, 0.1 μM, 1 μM, 10 μM and 100 μM. Conditions were analyzed in triplicate. For comparison, all data were normalized to the 100%.

T4-2 cells [7] = assay: 3D lrECM (Matrigel) culture of T4-2 cells: reversion of malignant phenotype, polarity, colony size; type: cell-based, human
Protocol: as §4, §3
Indirect immunofluorescence. Colonies were solubilized from […] culture by shaking in PBS/0.05M EDTA on ice for 30 mins, fixed in 4% paraformaldehyde, permeabilized, stained with anti-α6-integrin (Chemicon, Temecula, Calif.) and counterstained with DAPI.
Quantitation of colony size in the 3D lrECM culture was performed by image analysis. Representative images were captured using a digital camera attached to a phase contrast microscope. The high resolution digital images were then analyzed using NIH Image analysis software and the cross-sectional area of each colony was determined for many colonies. This process was hand-curated to ensure that aggregates of colonies were not measured as a single colony.

ZR75B = assay: ELISA of AREG shedding from ZR75B cells; type: cell-based, human; settings: 20 μM TAPI-2, 90 minutes
Protocol: as §1, §2

[8] = test system: T4-2 cells expressing AREGΔTM; assay: 3D culture of T4-2 cells expressing soluble AREG (AREGΔTM): colony size and morphology; type: cell-based, human; settings: T4-2 cells producing soluble AREG
Protocol: as §4, §5, §6, §7

T4-2 cells [9] = assay: Proliferation assay (WST) of T4-2 cells in 2D culture; type: cell-based, human
Protocol: Proliferation assays. HMT3522 cells were seeded in 96 well plates and treated (in triplicate) as described in the figure legends. To determine relative growth, 0.1 volumes of WST cell proliferation analysis reagent (Roche, Indianapolis, Ind.) was added to the medium and its formazan metabolite was measured by absorbance at 460 nm.

TACE = TACE (Homo sapiens, UniProt P78536); settings: cited from earlier work
[10] = test system: LPS-stimulated human peripheral blood mononuclear cells (PBMC); settings: cited from earlier work

TACE, sequence (P78536 215-824): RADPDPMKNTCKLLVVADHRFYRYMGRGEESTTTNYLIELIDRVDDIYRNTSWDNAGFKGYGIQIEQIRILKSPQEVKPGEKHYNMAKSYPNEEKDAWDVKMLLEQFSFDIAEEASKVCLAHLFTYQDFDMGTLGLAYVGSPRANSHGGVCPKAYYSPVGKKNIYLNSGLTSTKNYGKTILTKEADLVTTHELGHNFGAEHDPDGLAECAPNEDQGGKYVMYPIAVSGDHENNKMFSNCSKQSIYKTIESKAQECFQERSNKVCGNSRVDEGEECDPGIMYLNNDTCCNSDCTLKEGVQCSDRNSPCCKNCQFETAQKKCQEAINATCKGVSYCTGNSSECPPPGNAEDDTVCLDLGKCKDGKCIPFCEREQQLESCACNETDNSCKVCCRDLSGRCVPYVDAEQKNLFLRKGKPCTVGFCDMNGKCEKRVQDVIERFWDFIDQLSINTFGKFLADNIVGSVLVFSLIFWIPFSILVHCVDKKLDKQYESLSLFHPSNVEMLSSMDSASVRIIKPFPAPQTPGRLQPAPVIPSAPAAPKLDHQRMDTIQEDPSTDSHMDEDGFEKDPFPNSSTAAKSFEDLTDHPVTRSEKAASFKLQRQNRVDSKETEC

With CC(C)C[C@H](CC(=O)NO)C(=O)N[C@H](C(=O)N[C@@H](C)C(=O)NCCN)C(C)(C)C [TAPI-2, N—(R)-[2-(Hydroxyaminocarbonyl)methyl]-4-methylpentanoyl-L-t-butyl-alanyl-L-alanine, 2-aminoethyl Amide] the TGFα shedding (MDA-MB-468) was “significantly reduced ligand shedding”, the cytotoxicity (T4-2 cells [1]) was “not cytotoxic at the concentration used” and the “levels of shed ligands in conditioned medium (FIG. 6C)” value (T4-2 cells [2]) was “reduced”. For the same compound, the “response to TAPI-2 by criteria of colony size and morphology” value [3] was “completely resistant to TAPI-2”, the “shedding of AREG (ELISA of CM)” value (T4-2 cells [4]) was “suppresses the shedding of both AREG and TGFα” and the “shedding of TGFα (ELISA of CM)” value (T4-2 cells [4]) was “suppresses the shedding of both AREG and TGFα”. For the same compound, the AREG shedding (HCC1500) was “significantly reduced ligand shedding”, the TGFα shedding (HCC1500) was “significantly reduced ligand shedding” and the AREG shedding (MCF-7) was “significantly reduced ligand shedding”. For the same compound, the “interference with normal acinar morphogenesis of S1 cells” value (S1 cells) was “nor did it interfere with the ability of S1 cells to execute normal acinar morphogenesis”, the “basal activities of signaling kinases downstream of the EGFR” value [5] was “significantly suppressed” and the “sensitization of T4-2 cells to small molecule EGFR inhibitor (AG1478)” value (T4-2 cells [6]) was “sensitizes T4-2 cells to the effect of the EGFR inhibitor, AG1478; also recorded: four-fold sensitization”. For the same compound, the “restoration of epithelial polarity (basal localization of α6-integrin)” value (T4-2 cells [7]; 3D culture, TAPI-2 vs vehicle) was “restoration of epithelial polarity”, the “colony size (cross-sectional area) vs vehicle” value (T4-2 cells [7]; 3D culture, four days, p<0.001) was “significantly smaller than those formed by cells treated with vehicle alone; also recorded: significantly different from controls” and the “reversion of the malignant phenotype of T4-2 cells” value (T4-2 cells [7]; 3D lrECM culture, 80 nM AG1478 or 20 μM TAPI-2 vs vehicle) was “resulted in a reversion of the malignant phenotype”. The AREG shedding (ZR75B) was “significantly reduced ligand shedding”, the “response to TAPI-2 by criteria of colony size and morphology” value [8] was “completely resistant to TAPI-2” and the “TAPI-2-induced reduction of T4-2 proliferation on addition of EGF” value (T4-2 cells [9]; 2D culture, soluble/exogenous EGF added) was “overcome by addition of exogenous EGF; also recorded: completely overcome by addition of soluble EGF”. For the same compound, the “proliferation of T4-2 cells” value (T4-2 cells [9]; 2D cultures, vs 0 μM TAPI-2) was “dose-dependent decrease in proliferation; also recorded: dose-dependent reduction in T4-2 cell proliferation”.

For “TRWLVYFSRPYLVAT (synthetic peptide shown to inhibit TACE activity)”, the “binding to TACE” value (TACE) is given as “bind to TACE” and the TNF-alpha release [10] is given as “inhibit the TNF-alpha release”.
